Measured values as given in patent US20250236616A1, “IMMUNOMODULATING AZALIDES” (Zoetis Services LLC, priority 2021, published 2025).
Like-named read-outs stand apart in the source and are kept apart here. Marks after values point to notes of the source that are not given here.

Tests used:
Type in all cases: cell-based
[1] = tested on: BRD pathogens, M. haemolytica and P. multocida; test: MIC screening panel, BRD pathogens (CLSI broth micro-dilution)
Excerpt: Primary screening of the compounds of the invention included the evaluation of antibacterial activity of analogs through determination of microbial inhibition concentration (MIC) as per CLSI guidelines. The screening panel included the relevant BRD pathogens: 1) M. haemolytica (e.g., 12726, 46571 and 49023, all AHDRCC; and 33396 (ATCC)); and 2) P. multocida (e.g., 34135 and 46572 (both AHDRCC) and 43137 (ATCC)). In some instances, H. somni (A700025K) pathogens were also included in the screening panel. The AHDRCC strains originated from the Zoetis BRD/SRD surveillance program and refer to the Animal Health Development and Research Culture Collection. In addition, the screen assessed S. aureus (29213 ATCC) as a representative Gram-positive isolate, E.faecalis (19433 ATCC) as a commensal gram-positive gastrointestinal bacterium and E. coli (100, 3110 and 25922 (ATCC)) for the evaluation of efflux potential. The screening panel BRD pathogens were assessed in determining antibacterial activity of the Formula (1) compounds.
All relevant BRD pathogens were initially screened at a top concentration of 64 μg/mL of a Formula (1) compound in an eleven-point dilution series. […] If an Example was purified further, the MICs moved […] essentially two dilutions across all strains tested in the screening panel.
In-Vitro MIC Model Compounds were analyzed for antibacterial activity against a panel of animal health specific gram-positive and gram-negative clinical strains by diluting compounds in DMSO to an appropriate stock concentration to determine the Minimal Inhibitory Concentration (MIC) via a semi-automated broth micro-dilution method (CLSI reference method) with QC strains and anti-microbial agent(s). Specifically, bacteria were grown overnight on TSA w/5% sheep blood agar plates and diluted in saline buffer to a McFarland Standard 0.5, then further diluted in cation-ion adjusted Mueller Hinton Broth to a final concentration of approximately 5×10^5 CFU/mL. 100 μL of inoculated media was added to 96-well plate(s) with 3 μL of serially diluted compound in each row. Depending on strain (see CLSI reference method), bacteria were incubated 18-22 hours at 35-37° C. in ambient air, with 5% CO2 or anaerobically (up to 48 hours).

TNF-α = test: Whole bovine blood assay, LPS-induced TNF-α; conditions: fresh whole bovine blood, LPS stimulant, top drug concentration 250 μM
Procedure, shortened: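 Fresh heparinized bovine whole blood was preincubated with compound 4 h at 37 °C, then stimulated with LPS (final 1 μg/mL) for 18 h at 37 °C. Plasma TNF-α was quantified by MSD U-Plex chemiluminescent immunoassay, normalized to total protein (BCA), and IC50 taken for LPS-induced TNF-α inhibition.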

IL-6 = test: Whole bovine blood assay, LPS-induced IL-6; conditions: fresh whole bovine blood, LPS stimulant, top drug concentration 250 μM
IL-1β = test: Whole bovine blood assay, LPS-induced IL-1β (inhibition / overstimulation); conditions: drug concentration giving overstimulation (OS) of LPS-induced IL-1β, top concentration 250 μM
Procedure, shortened: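 IL-1β was quantified by MSD U-Plex chemiluminescence in plasma and normalized to BCA total protein. Bovine blood was pretreated 4 h at 37 °C with compound dilutions before 18 h LPS challenge (1 μg/mL final). Rising IL-1β at high concentrations was recorded as overstimulation.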

[2] = BRD pathogens M. haemolytica and P. multocida, read-out: antibacterial / non-antibacterial (MIC class)
[3] = Table B, at least one BRD pathogenic strain, top concentration 64 μg/mL, read-out: MIC flag (*) for BRD pathogenic strains
[4] = Table B, at least one BRD pathogenic strain, top concentration 64 μg/mL

Compound: CC[C@H]1OC(=O)[C@H](C)[C@@H](O[C@H]2C[C@@](C)(OC)[C@](O)(CSc3ccccc3)[C@H](C)O2)[C@H](C)[C@@H](O[C@@H]2O[C@H](C)C[C@H](N(C)S(=O)(=O)c3ccc(Cl)cc3)[C@H]2O)[C@](C)(O)C[C@@H](C)CN[C@H](C)[C@@H](O)[C@]1(C)O [Example A3-1, 4-chloro-N-((2S,3R,4S,6R)-2-(((2R,3S,4R,5R,8R,10R,11R,12S,13S,14R)-2-ethyl-3,4, 10-trihydroxy-13-(((2R,4R,5S,6S)-5-hydroxy-4-methoxy-4,6-dimethyl-5-((phenylthio)methyl)tetrahydro-2H-pyran-2-yl)oxy)-3,5,8, 10, 12, 14-hexamethyl-15-oxo-1-oxa-6-azacyclopentadecan-11-yl)oxy)-3-hydroxy-6-methyltetrahydro-2H-pyran-4-yl)-N-methylbenzenesulfonamide]
- MIC [1, 2]: > 64 µg/mL
- IC50 (TNF-α; Bos taurus): 27 µM
- IC50 (IL-6; Bos taurus): 31 µM

Compound: CC[C@H]1OC(=O)[C@H](C)[C@@H](O[C@H]2C[C@@](C)(OC)[C@](O)(CC#N)[C@H](C)O2)[C@H](C)[C@@H](O[C@@H]2O[C@H](C)C[C@H](N(C)S(=O)(=O)c3ccc(Cl)cc3)[C@H]2O)[C@](C)(O)C[C@@H](C)CN[C@H](C)[C@@H](O)[C@]1(C)O [Example A6-1, 4-chloro-N-((2S,3R,4S,6R)-2-(((2R,3S,4R,5R,8R,10R,11R,12S,13S,14R)-13-(((2R,4R,5S,6S)-5-(cyanomethyl)-5-hydroxy-4-methoxy-4,6-dimethyltetrahydro-2H-pyran-2-yl)oxy)-2-ethyl-3,4,10-trihydroxy-3,5,8,10,12,14-hexamethyl-15-oxo-1-oxa-6-azacyclopentadecan-11-yl)oxy)-3-hydroxy-6-methyltetrahydro-2H-pyran-4-yl)-N-methylbenzenesulfonamide]
- MIC [1, 2]: > 64 µg/mL

Compound: CCCNC[C@]1(O)[C@H](C)O[C@@H](O[C@H]2[C@H](C)[C@@H](O[C@@H]3O[C@H](C)C[C@H](N(C)S(=O)(=O)c4ccc([N+](=O)[O-])cc4)[C@H]3O)[C@](C)(O)C[C@@H](C)CN[C@H](C)[C@@H](O)[C@](C)(O)[C@@H](CC)OC(=O)[C@@H]2C)C[C@@]1(C)OC [Example B-2, N-((2S,3R,4S,6R)-2-(((2R,3S,4R,5R,8R,10R,11R,12S,13S,14R)-2-ethyl-3,4,10-trihydroxy-13-(((2R,4R,5S,6S)-5-hydroxy-4-methoxy-4,6-dimethyl-5-((propylamino)methyl)tetrahydro-2H-pyran-2-yl)oxy)-3,5,8,10, 12,14-hexamethyl-15-oxo-1-oxa-6-azacyclopentadecan-11-yl)oxy)-3-hydroxy-6-methyltetrahydro-2H-pyran-4-yl)-N-methyl-4-nitrobenzenesulfonamide]
- MIC [1, 3]: ≤ 64 µg/mL
- IC50 (TNF-α; Bos taurus): 37 µM
- IC50 (IL-6; Bos taurus): 46 µM

Compound: CCCNC[C@]1(O)[C@H](C)O[C@@H](O[C@H]2[C@H](C)[C@@H](O[C@@H]3O[C@H](C)C[C@H](N(C)S(=O)(=O)NCCc4ccccc4)[C@H]3O)[C@](C)(O)C[C@@H](C)CN[C@H](C)[C@@H](O)[C@](C)(O)[C@@H](CC)OC(=O)[C@@H]2C)C[C@@]1(C)OC [Example B-40, (2R,3S,4R,5R,8R,10R,11R,12S,13S,14R)-2-ethyl-3,4,10-trihydroxy-13-[(2R,4R,5S,6S)-5-hydroxy-4-methoxy-4,6-dimethyl-5-(propylaminomethyl)oxan-2-yl]oxy-11-[(2S,3R,4S,6R)-3-hydroxy-6-methyl-4-[methyl (2-phenylethylsulfamoyl)amino]oxan-2-yl]oxy-3,5,8,10,12,14-hexamethyl-15-oxo-1-oxa-6-azacyclopentadecane]
- MIC [1, 3]: ≤ 64 µg/mL

Compound: CCCNC[C@]1(O)[C@H](C)OC(O[C@H]2[C@H](C)[C@@H](O[C@@H]3O[C@H](C)C[C@H](N(C)S(=O)(=O)c4c(C)noc4C)[C@H]3Oc3ccc(OC)cc3)[C@](C)(O)C[C@@H](C)CN[C@H](C)[C@@H](O)[C@](C)(O)[C@@H](CC)OC(=O)[C@@H]2C)C[C@@]1(C)OC (stereo partly shown) [Example B-116]
- MIC flag (*) for BRD pathogenic strains [1, 4]: B-116* (MIC ≤64 μg/mL for at least one BRD pathogenic strain)

Compound: CCCNC[C@]1(O)[C@H](C)OC(O[C@H]2[C@H](C)[C@@H](O[C@@H]3O[C@H](C)C[C@H](N(C)S(=O)(=O)c4ccc(-c5cnco5)s4)[C@H]3Oc3ccc(OC)cc3)[C@](C)(O)C[C@@H](C)CN[C@H](C)[C@@H](O)[C@](C)(O)[C@@H](CC)OC(=O)[C@@H]2C)C[C@@]1(C)OC (stereo partly drawn) [Example B-120, N-[(2S,3R,4S,6R)-2-[[(2R,3S,4R,5R,8R,10R,11R,12S,13S, 14R)-2-ethyl-3,4,10-trihydroxy-13-[(4R,5S,6S)-5-hydroxy-4-methoxy-4,6-dimethyl-5-(propylaminomethyl)oxan-2-yl]oxy-3,5,8, 10, 12, 14-hexamethyl-15-oxo-1-oxa-6-azacyclopentadec-11-yl]oxy]-3-(4-methoxyphenoxy)-6-methyloxan-4-yl]-N-methyl-5-(1,3-oxazol-5-yl)thiophene-2-sulfonamide]
- MIC [1, 3]: ≤ 64 µg/mL
- IC50 (IL-6; Bos taurus): 6 µM

Compound: CCCNC[C@]1(O)[C@H](C)O[C@@H](O[C@H]2[C@H](C)[C@@H](O[C@@H]3O[C@H](C)C[C@H](N(C)S(=O)(=O)c4ccccc4)[C@H]3Oc3ccc(F)cc3)[C@](C)(O)C[C@@H](C)CN(CC)[C@H](C)[C@@H](O)[C@](C)(O)[C@@H](CC)OC(=O)[C@@H]2C)C[C@@]1(C)OC [Example B-161, N-((2S,3R,4S,6R)-2-(((2R,3S,4R,5R,8R,10R,11R,12S,13S,14R)-2,6-diethyl-3,4,10-trihydroxy-13-(((2R,4R,5S,6S)-5-hydroxy-4-methoxy-4,6-dimethyl-5-((propylamino)methyl)tetrahydro-2H-pyran-2-yl)oxy)-3,5,8,10,12,14-hexamethyl-15-oxo-1-oxa-6-azacyclopentadecan-11-yl)oxy)-3-(4-fluorophenoxy)-6-methyltetrahydro-2H-pyran-4-yl)-N-methylbenzenesulfonamide]
- MIC [1, 3]: ≤ 64 µg/mL

Compound: CCCNC[C@]1(O)[C@H](C)O[C@@H](O[C@H]2[C@H](C)[C@@H](O[C@@H]3O[C@H](C)C[C@H]4[C@H]3OS(=O)(=O)N4C)[C@](C)(O)C[C@@H](C)CN[C@H](C)[C@@H](O)[C@](C)(O)[C@@H](CC)OC(=O)[C@@H]2C)C[C@@]1(C)OC [Example D-1]
- IC50 (TNF-α): 5 µM
- IC50 (IL-6): 27 µM
- minimal effective concentration (IL-1β): 16 µM

Compound: (2R,3S,4R,5R,8R,10R,11R,12S,13S,14R)-2-ethyl-3,4,10-trihydroxy-13-[(2R,4R,5S,6S)-5-hydroxy-4-methoxy-4,6-dimethyl-5-(propylaminomethyl) oxan-2-yl]oxy-11-[(2S,3R,4S,6R)-3-hydroxy-6-methyl-4-[methyl-[[4-(trifluoromethyl)phenyl]sulfamoyl]-amino]oxan-2-yl]oxy-3,5,6,8,10,12,14-heptamethyl-15-oxo-1-oxa-6-azacyclopentadecane [Example B-159]
- MIC flag (*) for BRD pathogenic strains [1, 4]: B-159* (MIC ≤64 μg/mL for at least one BRD pathogenic strain)
- IC50 (TNF-α): 4 µM

Compound: (2R,3S,4R,5R,8R,10R,11R, 12S, 13S, 14R)-11-[(2R,3S,4R,6S)-4-[[3-(dimethylamino)phenyl]sulfamoyl-methylamino]-3-hydroxy-6-methyloxan-2-yl]oxy-2-ethyl-3,4,10-trihydroxy-13-[(2R,4R,5S,6S)-5-hydroxy-4-methoxy-4,6-dimethyl-5-(piperidin-1-ylmethyl) oxan-2-yl]oxy-3,5,8,10, 12, 14-hexamethyl-15-oxo-1-oxa-6-azacyclopentadecane [Example C-25]
- MIC flag (*) for BRD pathogenic strains ([1]; Table C, at least one BRD pathogenic strain, top concentration 64 μg/mL): C-25* (MIC ≤64 μg/mL for at least one BRD pathogenic strain)
- IC50 (TNF-α): 37 µM
